One block for each molecule: values may come before it. Activity calls are given as the source filed them.
Key:
[1] = system: HEK293; experiment: NOD2 signaling inhibitors in MDP-stimulated cells, cell-based, uHTS, luminescence (AID 2001); type: functional; conditions: Homo sapiens
[2] = system: HEK293; experiment: cells; type: functional, cell-based; conditions: Homo sapiens
[3] = system: HEK293; experiment: cells; type: functional, cell-based; conditions: Homo sapiens; remark: listed apart in the source
[4] = system: HEK293; experiment: NOD1 signaling inhibitors, primary screen, cell-based, luminescence, uHTS (AID 1578); type: functional; conditions: Homo sapiens
[5] = molecular target: T1, Sentrin-specific protease 8 (Homo sapiens, UniProt Q96LD8); type: functional;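 note: luminescence read-out of SENP8 inhibition, dose-response confirmation following an ultra-high-throughput screen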
T1 sequence (Q96LD8 whole entry): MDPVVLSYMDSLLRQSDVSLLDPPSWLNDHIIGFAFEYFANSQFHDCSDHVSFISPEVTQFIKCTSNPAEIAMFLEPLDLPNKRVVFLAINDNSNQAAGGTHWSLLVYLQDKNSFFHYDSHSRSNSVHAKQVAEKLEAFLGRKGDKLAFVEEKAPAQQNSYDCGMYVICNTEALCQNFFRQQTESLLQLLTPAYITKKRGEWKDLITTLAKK

[6] = molecular target: T2, Sentrin-specific protease 7 (Homo sapiens, UniProt Q9BQF6); type: functional;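 note: Luminescence-based dose-response confirmation of ultra-high-throughput screening hits, measuring inhibition of SENP7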
T2 sequence (Q9BQF6 whole entry): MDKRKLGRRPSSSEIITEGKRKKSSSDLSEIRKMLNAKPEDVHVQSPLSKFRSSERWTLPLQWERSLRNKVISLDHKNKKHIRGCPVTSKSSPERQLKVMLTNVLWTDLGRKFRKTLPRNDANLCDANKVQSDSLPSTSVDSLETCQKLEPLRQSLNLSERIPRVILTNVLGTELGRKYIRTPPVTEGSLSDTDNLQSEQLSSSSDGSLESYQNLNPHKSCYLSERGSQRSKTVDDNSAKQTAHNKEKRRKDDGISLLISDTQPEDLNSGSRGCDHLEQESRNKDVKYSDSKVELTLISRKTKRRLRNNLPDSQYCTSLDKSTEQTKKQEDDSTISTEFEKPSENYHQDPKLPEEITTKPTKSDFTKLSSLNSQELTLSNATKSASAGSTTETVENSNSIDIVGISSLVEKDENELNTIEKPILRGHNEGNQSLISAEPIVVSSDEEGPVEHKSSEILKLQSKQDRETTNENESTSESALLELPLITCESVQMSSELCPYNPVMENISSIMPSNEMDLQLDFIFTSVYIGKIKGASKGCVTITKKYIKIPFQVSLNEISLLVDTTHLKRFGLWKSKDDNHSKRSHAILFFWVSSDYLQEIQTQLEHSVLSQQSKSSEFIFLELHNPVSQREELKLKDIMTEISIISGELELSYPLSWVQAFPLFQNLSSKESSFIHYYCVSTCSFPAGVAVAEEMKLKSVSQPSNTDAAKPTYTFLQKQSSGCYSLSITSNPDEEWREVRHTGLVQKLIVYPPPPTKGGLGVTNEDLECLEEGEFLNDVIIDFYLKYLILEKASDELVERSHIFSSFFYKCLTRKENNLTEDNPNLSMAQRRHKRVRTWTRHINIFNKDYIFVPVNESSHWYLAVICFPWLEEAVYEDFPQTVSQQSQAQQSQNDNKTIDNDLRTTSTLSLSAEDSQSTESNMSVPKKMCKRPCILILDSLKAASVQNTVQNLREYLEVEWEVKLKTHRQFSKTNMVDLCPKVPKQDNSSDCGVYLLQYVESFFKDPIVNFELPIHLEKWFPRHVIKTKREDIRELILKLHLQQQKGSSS

[7] = molecular target: T3, Sentrin-specific protease 6 (Homo sapiens, UniProt Q9GZR1); type: functional;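 note: Luminescence-based dose-response confirmatory assay of SENP6 inhibition, following up an ultra-high-throughput screen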
T3 sequence (Q9GZR1 whole entry): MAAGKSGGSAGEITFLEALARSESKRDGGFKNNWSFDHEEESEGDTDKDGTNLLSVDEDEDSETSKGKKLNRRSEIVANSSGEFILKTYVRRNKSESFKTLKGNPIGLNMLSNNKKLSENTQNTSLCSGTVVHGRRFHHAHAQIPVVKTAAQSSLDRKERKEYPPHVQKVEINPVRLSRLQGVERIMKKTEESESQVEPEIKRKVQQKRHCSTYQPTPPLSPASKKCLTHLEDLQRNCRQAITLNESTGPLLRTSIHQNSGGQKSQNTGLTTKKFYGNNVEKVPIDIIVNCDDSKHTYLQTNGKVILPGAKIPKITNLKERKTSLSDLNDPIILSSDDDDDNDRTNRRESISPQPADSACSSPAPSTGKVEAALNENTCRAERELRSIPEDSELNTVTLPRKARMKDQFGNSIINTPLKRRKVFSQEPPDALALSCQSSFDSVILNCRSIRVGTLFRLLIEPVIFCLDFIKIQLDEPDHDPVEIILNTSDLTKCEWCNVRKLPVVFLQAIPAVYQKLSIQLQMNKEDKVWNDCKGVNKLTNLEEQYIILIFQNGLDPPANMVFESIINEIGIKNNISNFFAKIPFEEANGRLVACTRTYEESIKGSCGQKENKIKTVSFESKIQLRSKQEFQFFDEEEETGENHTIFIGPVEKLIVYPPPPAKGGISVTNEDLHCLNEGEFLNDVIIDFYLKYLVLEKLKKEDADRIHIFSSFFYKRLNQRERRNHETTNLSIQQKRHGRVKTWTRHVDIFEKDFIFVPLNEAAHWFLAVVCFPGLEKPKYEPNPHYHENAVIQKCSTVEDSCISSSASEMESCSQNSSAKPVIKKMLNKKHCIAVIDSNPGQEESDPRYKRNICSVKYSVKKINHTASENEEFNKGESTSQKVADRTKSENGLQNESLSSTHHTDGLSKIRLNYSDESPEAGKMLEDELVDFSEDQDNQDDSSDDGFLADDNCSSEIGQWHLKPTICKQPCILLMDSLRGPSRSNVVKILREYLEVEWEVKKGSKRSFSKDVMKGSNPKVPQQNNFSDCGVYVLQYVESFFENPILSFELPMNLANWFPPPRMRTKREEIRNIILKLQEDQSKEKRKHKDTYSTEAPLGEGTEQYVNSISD

[8] = molecular target: Dual specificity tyrosine-phosphorylation-regulated kinase 1A (Rattus norvegicus, UniProt Q63470); type: biochemical, Homo sapiens
[9] = molecular target: T4, DNA repair protein RAD52 homolog (Homo sapiens, UniProt P43351); type: functional, biochemical
T4 sequence (P43351 whole entry): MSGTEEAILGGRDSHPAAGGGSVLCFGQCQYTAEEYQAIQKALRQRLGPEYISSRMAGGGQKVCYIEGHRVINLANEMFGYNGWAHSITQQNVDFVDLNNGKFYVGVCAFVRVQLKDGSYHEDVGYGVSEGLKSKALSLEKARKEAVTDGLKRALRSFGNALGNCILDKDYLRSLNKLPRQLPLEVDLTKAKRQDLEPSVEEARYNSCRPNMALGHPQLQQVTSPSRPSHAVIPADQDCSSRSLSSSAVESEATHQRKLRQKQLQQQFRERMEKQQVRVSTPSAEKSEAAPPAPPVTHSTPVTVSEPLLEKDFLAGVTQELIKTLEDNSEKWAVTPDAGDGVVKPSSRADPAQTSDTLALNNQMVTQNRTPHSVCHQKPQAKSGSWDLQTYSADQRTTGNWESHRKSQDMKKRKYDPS

[10] = inhibitors of HIV Env-driven cell fusion, dose response, cherry-pick (AID 652057); type: functional, cell-based
[11] = inhibitors of clade B AD8 Env fusion, dose response, cell-based, cherry-pick (AID 652062); type: functional;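 note: luciferase signal from cell-cell fusion driven by HIV-1 clade B AD8 Env; potency is for inhibitors of fusion seen as a drop in luminescence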
[12] = ZM109 Env clade C HIV-1 fusion inhibitors, dose response, HeLa effector, CEM target cells, luciferase, cherry-pick (AID 652058); type: functional, cell-based
[13] = off-target signal loss in HeLa-CEM21 co-culture – HeLa F-luc CTL cells, cherry-picked, counter-screen for HIV-1 Env fusion inhibitor project, dose response (AID 652040); type: functional, cell-based;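 note: potency for signal decrease marking cytotoxic or nonspecific inhibition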
[14] = CEM21 lymphoblast cell cytotoxicity, dose response, cytotoxicity control for viral fusion inhibitor project, CellTiter-Glo luminescence, cherry-picked (AID 652042); type: functional, cell-based;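 note: potency for signal decrease meaning cytotoxicity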

SMILES: CCOc1ccc(C(=O)/C=C/c2cc(OC)c(OC)c(OC)c2)cc1
IC50 [1]: 5.02 µM (active) | IC50 [2]: 14.7 µM (active) | IC50 [3]: 5.97 µM (active) | EC50 [4]: 11.5 µM (active)

SMILES: C[C@H](CO)N1C[C@H](C)[C@H](CN(C)C(=O)N[C@H](C)c2ccccc2)OCc2ccccc2-c2c(n(C)c3ccccc23)C1=O
AC50 [10]: 0.975 µM (active) | AC50 [11]: 1.07 µM (active) | AC50 [12]: 1.62 µM (active) | AC50 [13]: 1.53 µM (active) | AC50 [14]: 64.6 µM (active)

The next lines start with results.

IC50 [6]: 5.62 µM (active) | IC50 [7]: > 100 µM (inactive)
SMILES: CC(C)(C)c1ccc(C(=O)NCCOc2ccccc2)cc1
IC50 [5]: > 100 µM (inactive)

AC50 [8]: 13.6 µM (active)
SMILES: Oc1ccnc2ccc(Cl)cc12

AC50 [9]: 13.7 µM (active)
SMILES: Cc1nc(NC(=N)N)nc2ccccc12

Reference: ChEMBL document CHEMBL1201862, “PubChem BioAssay data set” (2004)
